Experimental data from patent publication US9980943B2, “Methods of treating muscular dystrophy” (BOARD OF REGENTS OF THE NEVADA SYSTEM OF HIGHER EDUCATION, …, priority 2013, dated 2018).

Legend:
Format in all cases: cell-based, mouse
[1] = tested on: α7 integrin (LacZ reporter in α7βgal+/− myoblasts); assay: Myoblast α7+/LacZ integrin FDG assay (Burkin assay in myoblasts, 96-well); conditions: α7+/LacZ myoblasts, 96-well
[2] = tested on: α7 integrin (LacZ reporter in α7+/LacZ myotubes); assay: Myotube α7 integrin FDG assay (Burkin assay in myotubes, 96-well); conditions: myotubes
[3] = tested on: β-galactosidase in CMV-LacZ C2C12 myotubes; assay: CMV-LacZ secondary screen in C2C12 myotubes (β-Gal stabilizing assay); conditions: C2C12 CMV-LacZ myotubes, fold relative to DMSO
How it was run: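 First, C2C12 myoblasts were transfected with a linearized CMV-LACZ vector and clonal lines selected by FDG β-gal assay. Then cells were exposed to compounds at 0.5, 1, 5, 10, 20 and 40 μM in 96-well format, two replicates each, and β-gal measured.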

| SMILES | Burkin Assay in Myoblasts, value relative to DMSO ([1]; 0.5 uM) | Burkin Assay in Myoblasts, value relative to DMSO ([1]; 1 uM) | Burkin Assay in Myoblasts, value relative to DMSO ([1]; 5 uM) | Burkin Assay in Myoblasts, value relative to DMSO ([1]; 10 uM) | CMV-LACZ in Myotubes, signal relative to DMSO ([3]; 5 uM) | CMV-LACZ in Myotubes, signal relative to DMSO ([3]; 10 uM) | CMV-LACZ in Myotubes, signal relative to DMSO ([3]; 20 uM) | CMV-LACZ in Myotubes, signal relative to DMSO ([3]; 40 uM) | Burkin Assay in Myoblasts, signal relative to DMSO ([1]; 0.5 uM) | Burkin Assay in Myoblasts, signal relative to DMSO ([1]; 1 uM) | Burkin Assay in Myoblasts, signal relative to DMSO ([1]; 5 uM) | Burkin Assay in Myoblasts, signal relative to DMSO ([1]; 10 uM) | Burkin Assay in Myoblasts, signal relative to DMSO ([1]; 20 uM) | Burkin Assay in Myoblasts, signal relative to DMSO ([1]; 40 uM) | Burkin Assay in Myotubes, α7 integrin LacZ reporter signal relative to DMSO ([2]; 0.5 uM) | Burkin Assay in Myotubes, α7 integrin LacZ reporter signal relative to DMSO ([2]; 1 uM) | Burkin Assay in Myotubes, α7 integrin LacZ reporter signal relative to DMSO ([2]; 5 uM) | Burkin Assay in Myotubes, α7 integrin LacZ reporter signal relative to DMSO ([2]; 10 uM) | Burkin Assay in Myotubes, α7 integrin LacZ reporter signal relative to DMSO ([2]; 20 uM) | Burkin Assay in Myotubes, α7 integrin LacZ reporter signal relative to DMSO ([2]; 40 uM) | further results |
| --- | --- | --- | --- | --- | --- | --- | --- | --- | --- | --- | --- | --- | --- | --- | --- | --- | --- | --- | --- | --- | --- |
| Cc1ccccc1C(=O)Nc1scc(-c2ccc(Br)cc2)c1C(=O)O [MLS001179267-01] | 0.983 | 1.031 | 0.9797 | 0.9902 | 0.9091 | 0.8244 | 0.6141 | 0.5554 |  |  |  |  |  |  |  |  |  |  |  |  | Burkin Assay in Myoblasts, value relative to DMSO ([1]; 20 uM): 0.9305; Burkin Assay in Myoblasts, value relative to DMSO ([1]; 40 uM): 0.95; Burkin Assay in Myotubes (signal relative to DMSO) ([2]; 0.5 uM): 0.947; Burkin Assay in Myotubes (signal relative to DMSO) ([2]; 1 uM): 0.8787; Burkin Assay in Myotubes (signal relative to DMSO) ([2]; 5 uM): 0.8908; Burkin Assay in Myotubes (signal relative to DMSO) ([2]; 10 uM): 0.559; Burkin Assay in Myotubes (signal relative to DMSO) ([2]; 20 uM): 0.8589; Burkin Assay in Myotubes (signal relative to DMSO) ([2]; 40 uM): 0.5111 |
| COc1ccccc1C(=O)NCCOc1ccc(C(C)(C)C)cc1 [MLS001179624-01] |  |  |  |  | 0.8604 | 0.8788 | 0.452 | 0.4965 | 0.993 | 0.9963 | 0.9515 | 0.9314 | 0.879 | 0.8828 | 0.9052 | 0.9709 | 1.048 | 1.104 | 0.8903 | 0.2183 |  |
| CN(C)C1(CN=Cc2cc(Cl)cc([N+](=O)[O-])c2O)CCCCC1 [MLS001179695-01] |  |  |  |  | 1.183 | 1.095 | 1.175 | 1.047 | 1.033 | 0.9441 | 0.8752 | 0.9871 | 0.8923 | 0.8068 | 1.053 | 0.949 | 1.199 | 0.9922 | 0.9298 | 0.8546 |  |
| CN(C)CCNc1ncnc2sc(-c3ccccc3)cc12 [MLS001179717-01] |  |  |  |  | 1.084 | 0.8133 | 0.5748 | 0.4829 | 0.912 | 0.864 | 0.8357 | 0.6794 | 0.3052 | 0.05093 | 0.8788 | 1.027 | 0.744 | 0.6812 | 0.5137 | 0.2663 |  |
| CC(C)(CC(=O)O)CC(=O)N1CCCN(c2nccc(C(F)(F)F)n2)CC1 [MLS001181671-01] | 1.052 | 0.965 | 0.8759 | 0.8638 | 0.8803 | 0.9201 | 1.03 | 0.9377 |  |  |  |  |  |  |  |  |  |  |  |  | Burkin Assay in Myoblasts, value relative to DMSO ([1]; 20 uM): 0.8113; Burkin Assay in Myoblasts, value relative to DMSO ([1]; 40 uM): 0.891; Burkin Assay in Myotubes (signal relative to DMSO) ([2]; 0.5 uM): 1.071; Burkin Assay in Myotubes (signal relative to DMSO) ([2]; 1 uM): 0.9095; Burkin Assay in Myotubes (signal relative to DMSO) ([2]; 5 uM): 1.337; Burkin Assay in Myotubes (signal relative to DMSO) ([2]; 10 uM): 1.22; Burkin Assay in Myotubes (signal relative to DMSO) ([2]; 20 uM): 0.9854; Burkin Assay in Myotubes (signal relative to DMSO) ([2]; 40 uM): 0.9878 |
| Oc1c(Br)cc(Br)cc1CNc1cccc2cccnc12 [MLS001183429-01] |  |  |  |  | 0.8436 | 0.944 | 0.9105 | 0.5809 | 0.7592 | 0.6652 | 0.7821 | 0.7373 | 0.5666 | 0.3329 | 0.8042 | 0.823 | 0.8557 | 0.733 | 0.4076 | 0.2629 |  |
| CCOc1ccc(-n2c(C)c(C(=O)O)c3cc(OC)ccc32)cc1 [MLS001194551-01] | 1.096 | 1.205 | 1.115 | 1.297 | 0.8273 | 0.9459 | 1.047 | 0.7809 |  |  |  |  |  |  |  |  |  |  |  |  | Burkin Assay in Myoblasts, value relative to DMSO ([1]; 20 uM): 1.176; Burkin Assay in Myoblasts, value relative to DMSO ([1]; 40 uM): 1.392; Burkin Assay in Myotubes (signal relative to DMSO) ([2]; 0.5 uM): 1.0169; Burkin Assay in Myotubes (signal relative to DMSO) ([2]; 1 uM): 1.01; Burkin Assay in Myotubes (signal relative to DMSO) ([2]; 5 uM): 1.043; Burkin Assay in Myotubes (signal relative to DMSO) ([2]; 10 uM): 1.094; Burkin Assay in Myotubes (signal relative to DMSO) ([2]; 20 uM): 1.209; Burkin Assay in Myotubes (signal relative to DMSO) ([2]; 40 uM): 1.281 |
| COc1ccc(Nc2ncnc3ccc(Br)cc23)cc1OC [MLS001196422-01] |  |  |  |  |  |  |  |  |  |  |  |  |  |  |  |  |  |  |  |  | fold induction at 0.5 µM ([1]; Mus musculus, Myoblast, 48 h, 0.5 uM, read-out: Burkin Assay in Myoblasts, signal relative to DMSO): 0.746; fold induction at 1 µM ([1]; Mus musculus, Myoblast, 48 h, 1 uM, read-out: Burkin Assay in Myoblasts, signal relative to DMSO): 0.978; fold induction at 5 µM ([1]; Mus musculus, Myoblast, 48 h, 5 uM, read-out: Burkin Assay in Myoblasts, signal relative to DMSO): 1.23; fold induction at 10 µM ([1]; Mus musculus, Myoblast, 48 h, 10 uM, read-out: Burkin Assay in Myoblasts, signal relative to DMSO): 1.33; fold induction at 20 µM ([1]; Mus musculus, Myoblast, 48 h, 20 uM, read-out: Burkin Assay in Myoblasts, signal relative to DMSO): 1.25; fold induction at 40 µM ([1]; Mus musculus, Myoblast, 48 h, 40 uM, read-out: Burkin Assay in Myoblasts, signal relative to DMSO): 1; fold induction at 0.5 µM ([2]; Mus musculus, Myotube, 0.5 uM, read-out: Burkin Assay in Myotubes, α7 integrin LacZ reporter signal relative to DMSO): 0.976; fold induction at 1 µM ([2]; Mus musculus, Myotube, 1 uM, read-out: Burkin Assay in Myotubes, α7 integrin LacZ reporter signal relative to DMSO): 1.14; fold induction at 5 µM ([2]; Mus musculus, Myotube, 5 uM, read-out: Burkin Assay in Myotubes, α7 integrin LacZ reporter signal relative to DMSO): 1.19; fold induction at 10 µM ([2]; Mus musculus, Myotube, 10 uM, read-out: Burkin Assay in Myotubes, α7 integrin LacZ reporter signal relative to DMSO): 1.32; fold induction at 20 µM ([2]; Mus musculus, Myotube, 20 uM, read-out: Burkin Assay in Myotubes, α7 integrin LacZ reporter signal relative to DMSO): 1.09; fold induction at 40 µM ([2]; Mus musculus, Myotube, 40 uM, read-out: Burkin Assay in Myotubes, α7 integrin LacZ reporter signal relative to DMSO): 0.975; fold induction at 5 µM ([3]; Mus musculus, 5 uM, read-out: CMV-LACZ in Myotubes, signal relative to DMSO): 0.896; fold induction at 10 µM ([3]; Mus musculus, 10 uM, read-out: CMV-LACZ in Myotubes, signal relative to DMSO): 0.893; fold induction at 20 µM ([3]; Mus musculus, 20 uM, read-out: CMV-LACZ in Myotubes, signal relative to DMSO): 0.83; fold induction at 40 µM ([3]; Mus musculus, 40 uM, read-out: CMV-LACZ in Myotubes, signal relative to DMSO): 0.856 |
